# From publication PMC8206213, “An L-2-hydroxyglutarate biosensor based on specific transcriptional regulator LhgR” (Nature Communications, 2021)
# Several values for one entry are separate records, joined by “and”; a condition that tells them apart may be missing. Equal entries are not always repeated.
# Assay: Dose-response of purified LHGFR and its variants for L-2-HG in 50 mM Tris-HCl buffer (pH 7.4), Venus/mTFP emission ratio
# Type: binding
# Method: Purified L-2-HG biosensors and different compounds were diluted by 50 mM Tris-HCl buffer (pH 7.4), mixed together in a black 96-well plate at a volume ratio of 3:1, and the fluorescence intensities were measured using an EnSight microplate reader (PerkinElmer, USA) with excitation at 430 nm, emission at 485 nm (mTFP) and 528 nm (Venus). The dose-response curves were fitted by OriginPro 2016 software (OriginLab) according to the following formula:1 R=Rmax+Rmin−Rmax/1+([L-2-HG]/Kd)^p where R, Rmin, and Rmax refer to the emission ratio of Venus to mTFP, ratio in the absence of L-2-HG, and ratio at saturation with L-2-HG, respectively. The [L-2-HG], Kd, and p refer to the L-2-HG concentration, apparent dissociation constant, and Hill slope, respectively. Emission spectra were recorded at 430 nm excitation, in steps of 2 nm. Excitation spectra were recorded using emission at 550 nm, excitation from 380 to 535 nm in steps of 2 nm.
compound,measurement,setting,value
"O=C(O)CC[C@H](O)C(=O)O [L-2-HG, L-2-Hydroxyglutarate]",Emission ratio of 528/485,"For L-2-HG, 2-HG concentration 0.01, Suppl. Fig. 9c",1.3857 and 1.387 and 1.404
same,Emission ratio of 528/485,"For L-2-HG, 2-HG concentration 0.01, Suppl. Fig. 9d",1.655 and 1.676 and 1.693
same,Emission ratio of 528/485,"For L-2-HG, 2-HG concentration 0.1, Suppl. Fig. 9c",1.381 and 1.392 and 1.391
same,Emission ratio of 528/485,"For L-2-HG, 2-HG concentration 0.1, Suppl. Fig. 9d",1.641 and 1.674 and 1.689
same,Emission ratio of 528/485,"For L-2-HG, 2-HG concentration 0.2, Suppl. Fig. 9c",1.397 and 1.394 and 1.401
same,Emission ratio of 528/485,"For L-2-HG, 2-HG concentration 0.2, Suppl. Fig. 9d",1.675 and 1.688 and 1.698
same,Emission ratio of 528/485,"For L-2-HG, 2-HG concentration 1, Suppl. Fig. 9c",1.392 and 1.412 and 1.423
same,Emission ratio of 528/485,"For L-2-HG, 2-HG concentration 1, Suppl. Fig. 9d",1.753 and 1.778 and 1.797
same,Emission ratio of 528/485,"For L-2-HG, 2-HG concentration 2, Suppl. Fig. 9c",1.425 and 1.451 and 1.463
same,Emission ratio of 528/485,"For L-2-HG, 2-HG concentration 2, Suppl. Fig. 9d",1.892 and 1.897 and 1.889
same,Emission ratio of 528/485,"For L-2-HG, 2-HG concentration 10, Suppl. Fig. 9c",1.602 and 1.628 and 1.623
same,Emission ratio of 528/485,"For L-2-HG, 2-HG concentration 10, Suppl. Fig. 9d",2.254 and 2.242 and 2.288
same,Emission ratio of 528/485,"For L-2-HG, 2-HG concentration 20, Suppl. Fig. 9c",1.712 and 1.7343 and 1.752
same,Emission ratio of 528/485,"For L-2-HG, 2-HG concentration 20, Suppl. Fig. 9d",2.359 and 2.347 and 2.363
same,Emission ratio of 528/485,"For L-2-HG, 2-HG concentration 100, Suppl. Fig. 9c",1.988 and 1.973 and 1.992
same,Emission ratio of 528/485,"For L-2-HG, 2-HG concentration 100, Suppl. Fig. 9d",2.568 and 2.652 and 2.688
same,Emission ratio of 528/485,"For L-2-HG, 2-HG concentration 200, Suppl. Fig. 9c",2.0666 and 2.05 and 2.077
same,Emission ratio of 528/485,"For L-2-HG, 2-HG concentration 200, Suppl. Fig. 9d",2.563 and 2.676 and 2.688
same,Emission ratio of 528/485,"For L-2-HG, 2-HG concentration 1000, Suppl. Fig. 9c",2.162 and 2.183 and 2.153
same,Emission ratio of 528/485,"For L-2-HG, 2-HG concentration 1000, Suppl. Fig. 9d",2.635 and 2.6341 and 2.632
same,Emission ratio of 528/485,"For L-2-HG, 2-HG concentration 2000, Suppl. Fig. 9c",2.173 and 2.178 and 2.17
same,Emission ratio of 528/485,"For L-2-HG, 2-HG concentration 2000, Suppl. Fig. 9d",2.667 and 2.655 and 2.697
same,Emission ratio of 528/485,"Supplementary Fig. 6a, L-2-HG concentration 0.01",1.3857 and 1.387 and 1.404
same,Emission ratio of 528/485,"Supplementary Fig. 6a, L-2-HG concentration 0.1",1.381 and 1.392 and 1.391
same,Emission ratio of 528/485,"Supplementary Fig. 6a, L-2-HG concentration 0.2",1.397 and 1.394 and 1.401
same,Emission ratio of 528/485,"Supplementary Fig. 6a, L-2-HG concentration 1",1.392 and 1.412 and 1.423
same,Emission ratio of 528/485,"Supplementary Fig. 6a, L-2-HG concentration 2",1.425 and 1.451 and 1.463
same,Emission ratio of 528/485,"Supplementary Fig. 6a, L-2-HG concentration 10",1.602 and 1.628 and 1.623
same,Emission ratio of 528/485,"Supplementary Fig. 6a, L-2-HG concentration 20",1.712 and 1.7343 and 1.752
same,Emission ratio of 528/485,"Supplementary Fig. 6a, L-2-HG concentration 100",1.988 and 1.973 and 1.992
same,Emission ratio of 528/485,"Supplementary Fig. 6a, L-2-HG concentration 200",2.0666 and 2.05 and 2.077
same,Emission ratio of 528/485,"Supplementary Fig. 6a, L-2-HG concentration 1000",2.162 and 2.183 and 2.153
same,Emission ratio of 528/485,"Supplementary Fig. 6a, L-2-HG concentration 2000",2.173 and 2.178 and 2.17
same,Emission ratio of 528/485,"Supplementary Fig. 6b, L-2-HG concentration 0.01",1.79 and 1.921 and 1.894
same,Emission ratio of 528/485,"Supplementary Fig. 6b, L-2-HG concentration 0.1",1.777 and 1.91 and 1.94
same,Emission ratio of 528/485,"Supplementary Fig. 6b, L-2-HG concentration 1",2.057 and 2.207 and 2.255
same,Emission ratio of 528/485,"Supplementary Fig. 6b, L-2-HG concentration 2",2.268 and 2.379 and 2.449
same,Emission ratio of 528/485,"Supplementary Fig. 6b, L-2-HG concentration 10",2.5843 and 2.787 and 2.825
same,Emission ratio of 528/485,"Supplementary Fig. 6b, L-2-HG concentration 20",2.72 and 2.88 and 2.892
same,Emission ratio of 528/485,"Supplementary Fig. 6b, L-2-HG concentration 100",2.76 and 2.892 and 2.986
same,Emission ratio of 528/485,"Supplementary Fig. 6b, L-2-HG concentration 1000",2.847 and 2.935 and 2.998
same,Emission ratio of 528/485,"Supplementary Fig. 6b, L-2-HG concentration 2000",2.912 and 2.995 and 3.032
same,Emission ratio of 528/485,"Supplementary Fig. 6c, L-2-HG concentration 0.01",1.881 and 1.865 and 1.887
same,Emission ratio of 528/485,"Supplementary Fig. 6c, L-2-HG concentration 0.1",1.869 and 1.918 and 1.908
same,Emission ratio of 528/485,"Supplementary Fig. 6c, L-2-HG concentration 1",2.144 and 2.182 and 2.149
same,Emission ratio of 528/485,"Supplementary Fig. 6c, L-2-HG concentration 2",2.3419 and 2.384 and 2.402
same,Emission ratio of 528/485,"Supplementary Fig. 6c, L-2-HG concentration 10",2.743 and 2.7667 and 2.84
same,Emission ratio of 528/485,"Supplementary Fig. 6c, L-2-HG concentration 20",2.846 and 2.91 and 2.871
same,Emission ratio of 528/485,"Supplementary Fig. 6c, L-2-HG concentration 100",2.914 and 2.957 and 2.953
same,Emission ratio of 528/485,"Supplementary Fig. 6c, L-2-HG concentration 1000",2.894 and 2.9819 and 2.963
same,Emission ratio of 528/485,"Supplementary Fig. 6c, L-2-HG concentration 2000",2.899 and 2.986 and 2.9894
same,Emission ratio of 528/485,"Supplementary Fig. 6e, L-2-HG concentration 0.01",1.655 and 1.676 and 1.693
same,Emission ratio of 528/485,"Supplementary Fig. 6e, L-2-HG concentration 0.1",1.641 and 1.674 and 1.689
same,Emission ratio of 528/485,"Supplementary Fig. 6e, L-2-HG concentration 0.2",1.675 and 1.688 and 1.698
same,Emission ratio of 528/485,"Supplementary Fig. 6e, L-2-HG concentration 1",1.753 and 1.778 and 1.797
same,Emission ratio of 528/485,"Supplementary Fig. 6e, L-2-HG concentration 2",1.892 and 1.897 and 1.889
same,Emission ratio of 528/485,"Supplementary Fig. 6e, L-2-HG concentration 10",2.254 and 2.242 and 2.288
same,Emission ratio of 528/485,"Supplementary Fig. 6e, L-2-HG concentration 20",2.359 and 2.347 and 2.363
same,Emission ratio of 528/485,"Supplementary Fig. 6e, L-2-HG concentration 100",2.568 and 2.652 and 2.688
same,Emission ratio of 528/485,"Supplementary Fig. 6e, L-2-HG concentration 200",2.563 and 2.676 and 2.688
same,Emission ratio of 528/485,"Supplementary Fig. 6e, L-2-HG concentration 1000",2.635 and 2.6341 and 2.632
same,Emission ratio of 528/485,"Supplementary Fig. 6e, L-2-HG concentration 2000",2.667 and 2.655 and 2.697
same,Emission ratio of 528/485,"Supplementary Fig. 6d, L-2-HG concentration 0.01",1.72 and 1.724 and 1.742
same,Emission ratio of 528/485,"Supplementary Fig. 6d, L-2-HG concentration 0.1",1.742 and 1.747 and 1.746
same,Emission ratio of 528/485,"Supplementary Fig. 6d, L-2-HG concentration 1",1.865 and 1.88 and 1.882
same,Emission ratio of 528/485,"Supplementary Fig. 6d, L-2-HG concentration 2",2.014 and 2.037 and 2.039
same,Emission ratio of 528/485,"Supplementary Fig. 6d, L-2-HG concentration 10",2.446 and 2.449 and 2.469
same,Emission ratio of 528/485,"Supplementary Fig. 6d, L-2-HG concentration 20",2.546 and 2.554 and 2.592
same,Emission ratio of 528/485,"Supplementary Fig. 6d, L-2-HG concentration 100",2.59 and 2.651 and 2.67
same,Emission ratio of 528/485,"Supplementary Fig. 6d, L-2-HG concentration 1000",2.653 and 2.699 and 2.7087
same,Emission ratio of 528/485,"Supplementary Fig. 6d, L-2-HG concentration 2000",2.665 and 2.7183 and 2.7325
